From patent US6576639B1, “Compounds for the inhibition of farnesyl protein transferase” (Schering Corporation, priority 1997, dated 2003)
One block for each compound: values may come before it.

Experiments:
[1] = biological target: farnesyl protein transferase (Homo sapiens, UniProt P49354+P49356); experiment: FPT IC50 (inhibition of farnesyl protein transferase, in vitro enzyme assay, per WO 95/10516); assay type: biochemical; settings: for IC50: in vitro enzyme assay
Description: (§1) FPT IC50 (inhibition of farnesyl protein transferase, in vitro enzyme assay) was determined following the assay procedures described in WO 95/10516, published Apr. 20, 1995. GGPT IC50 (inhibition of geranylgeranyl protein transferase, in vitro enzyme assay), COS Cell IC50 (Cell-Based Assay), Cell Mat Assay, and anti-tumor activity (in vivo anti-tumor studies) could be determined by the assay procedures described in WO 95/10516. The disclosure of WO 95/10516 is incorporated herein by reference thereto.

[2] = test system: Human tumor cells; experiment: Soft Agar Assay (anchorage-independent growth); assay type: cell-based
Description: Anchorage-independent growth is a characteristic of tumorigenic cell lines. Human tumor cells can be suspended in growth medium containing 0.3% agarose and an indicated concentration of a farnesyl transferase inhibitor. The solution can be overlayed onto growth medium solidified with 0.6% agarose containing the same concentration of farnesyl transferase inhibitor as the top layer. After the top layer is solidified, plates can be incubated for 10-16 days at 37° C. under 5% CO2 to allow colony outgrowth. After incubation, the colonies can be stained by overlaying the agar with a solution of MTT (3-[4,5-dimethyl-thiazol-2-yl]-2,5-diphenyltetrazolium bromide, Thiazolyl blue) (1 mg/mL in PBS). Colonies can be counted and the IC50's can be determined.

[3] = test system: COS Cell; experiment: COS Cell IC50 (Cell-Based Assay, per WO 95/10516)
Description: as §1

[4] = biological target: T1, human FPT (Homo sapiens, UniProt P49354+P49356); experiment: FPT pM IC50 Assay; assay type: biochemical; settings: 30 pM human FPT, biotin-CVLS substrate, 37° C., 1 hour
T1 construct: made in house; host or cells: Baculovirus/Sf-9
Description: The enzymatic reaction is performed in 50 mM Tris, 5 μM ZnCl2, 5 mM MgCl2, 0.01% Triton X-100, 5 mM dithiolthreitol (DTT), pH 7.7 (Buffer R) at 37° C. for 1 hour. The purified human FPT (>95% pure) was derived from a Baculovirus/Sf-9 expression system. The peptide substrate used was biotin-CVLS (SynPep Corp., Dublin, Calif.) and (1-^3H)-FPP (21.5 Ci/mmol) was obtained from New England Nuclear Life Science Products (Boston, Mass.). Compounds were initially dissolved to a final concentration of 4 mg/ml in 100% DMSO and then to 0.25 μg/ml in 100% DMSO. Subsequent dilutions of the compound were performed in Buffer R.
The enzymatic reaction is performed in a final volume of 100 μl. Reactions are carried out in a 96 well plate format. […] The reaction is stopped using 150 μl of the Stop Solution consisting of 1.3 mg/ml scintillation beads (strepavidin-coated scintillation proximity beads from Amersham (Arlington Heights, Ill.), 250 mM EDTA, pH 8.0 and 0.5% BSA. The radioactivity is measured after 20 minutes at room temperature.
Compounds are evaluated for their ability to inhibit the reaction by measuring the concentration-dependent percent inhibition of the reaction. […] The enzymatic activity was recorded by measuring the CPM/well using a Wallac 1204 Betaplate BS liquid scintillation counter. […]

Sequence of farnesyl protein transferase (P49356 whole entry, one chain of several): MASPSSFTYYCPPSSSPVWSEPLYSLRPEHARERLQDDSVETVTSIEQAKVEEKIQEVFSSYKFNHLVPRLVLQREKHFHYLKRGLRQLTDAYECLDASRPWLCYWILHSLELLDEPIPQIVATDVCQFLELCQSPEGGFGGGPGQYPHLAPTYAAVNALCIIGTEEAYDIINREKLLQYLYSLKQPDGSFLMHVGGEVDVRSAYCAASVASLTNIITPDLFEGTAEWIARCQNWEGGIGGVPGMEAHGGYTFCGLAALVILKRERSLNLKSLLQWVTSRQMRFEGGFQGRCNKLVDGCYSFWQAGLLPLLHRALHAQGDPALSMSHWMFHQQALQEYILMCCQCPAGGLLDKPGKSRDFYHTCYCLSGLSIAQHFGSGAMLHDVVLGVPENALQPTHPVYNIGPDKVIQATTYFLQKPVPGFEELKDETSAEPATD

- IC50 [1]: 23 nM
SMILES: NC(=O)N1CCC(CC(=O)N2CCN(C3c4ccc(Cl)cc4CCc4cc(Br)c[n+]([O-])c43)CC2)CC1 (racemic) [Example 9, (±) 4-[2-[(3-Bromo-8-chloro-6,11-dihydro-5H-benzo[5,6]cyclohepta [1,2-b]pyridin-11-yl)-1-piperazinyl]-2-oxoethyl]-1-piperidinecarboxamide N1-oxide]

- IC50 [1]: 28 nM
SMILES: O=C(Cc1cc[n+]([O-])cc1)N1CCC([C@H]2c3ccc(Cl)c(Br)c3CCc3cc(Br)c[n+]([O-])c32)CC1 [Example 5, (−)-4-(8-Chloro-3,7-Dibromo-6,11-Dihydro-5H-Benzo[5,6]Cyclohepta [1,2-b]Pyridin-11-yl)-1-(4-Pyridinylacetyl)Piperidine N1-Oxide, N4-Oxide]

- IC50 [1]: 12 nM
SMILES: NC(=O)N1CCC(CC(=O)N2CCN([C@@H]3c4ccc(Cl)cc4CCc4cc(Br)c[n+]([O-])c43)CC2)CC1 [Example 10, (+) 4-[2-[(3-Bromo-8-chloro-6,11-dihydro-5H-benzo[5,6]cyclo-hepta [1,2-b]pyridin-11R-yl)-1-piperazinyl]-2-oxoethyl]-1-piperidinecarboxamide N1-oxide]

- FPT percent inhibition ([1]; @ 160 (concentration unit not given)): 24% @ 160
SMILES: NC(=O)N1CCC(CC(=O)N2CCN([C@H]3c4ccc(Cl)cc4CCc4cc(Br)c[n+]([O-])c43)CC2)CC1 [Example 11, (−) 4-[2-[(3-Bromo-8-chloro-6,11-dihydro-5H-benzo[5,6]cyclo-hepta [1,2-b]pyridin-11S-yl)-1-piperazinyl]-2-oxoethyl]-1-piperidinecarboxamide N1-oxide]

- melting point: 146.8 to 147.4 °C
- IC50 [1]: 35 nM
SMILES: NC(=O)N1CCC(CC(=O)N2CCC([C@@H]3c4ccc(Cl)cc4CCc4cc(Br)c[n+]([O-])c43)CC2)CC1 [Example 12]

- melting point: 120 to 121 °C
- IC50 [1]: 174 nM
SMILES: NC(=O)N1CCC(CC(=O)N2CCC([C@H]3c4ccc(Cl)cc4CCc4cc(Br)c[n+]([O-])c43)CC2)CC1 [Example 13]

- melting point: 109 to 110 °C
- FPT percent inhibition ([1]; @ 180 (concentration unit not given)): 25% @ 180
SMILES: O=C(Cc1cc[n+]([O-])cc1)N1CCC([C@H]2c3ccc(Cl)cc3C=Cc3cc(Br)c[n+]([O-])c32)CC1 [Example 14]

- melting point: 125.5 to 126.3 °C
- IC50 [1]: 19 nM
SMILES: O=C(Cc1cc[n+]([O-])cc1)N1CCC([C@@H]2c3ccc(Cl)cc3C=Cc3cc(Br)c[n+]([O-])c32)CC1 [Example 15]

More lines, now with the values behind:

SMILES: NC(=O)N1CCC(CC(=O)N2CCC(C3c4c(Br)cc(Cl)cc4CCc4cc(Br)c[n+]([O-])c43)CC2)CC1 (centres unmarked) [Compound 54.0]
- FPT percent inhibition ([1]; @150 nM): 42%

SMILES: NC(=O)N1CCC(CC(=O)N2CCC([C@@H]3c4c(Br)cc(Cl)cc4CCc4cc(Br)c[n+]([O-])c43)CC2)CC1 [Example 2, (+)-4-[2-[4-(3,10-Dibromo-8-chloro-6,11-dihydro-5H-benzo [5,6]cyclohepta[1,2-b]pyridin-11(R)-YL)-1-piperidinyl]-2-oxoethyl]-1-piperidinecarboxamide N-oxide]
- IC50 [2]: 45 nM
- IC50 [3]: 9 nM
- IC50 [1]: 1.4 nM

SMILES: O=C(Cc1cc[n+]([O-])cc1)N1CCC([C@@H]2c3c(Br)cc(Cl)cc3CCc3cc(Br)c[n+]([O-])c32)CC1 [Example 3]
- IC50 [2]: 25 nM
- IC50 [3]: 11.5 nM
- IC50 [1]: 0.7 nM

SMILES: NC(=O)N1CCC(CC(=O)N2CCC([C@H]3c4ccc(Cl)c(Br)c4CCc4cc(Br)c[n+]([O-])c43)CC2)CC1 [Example 4]
- IC50 [1]: 18 nM

SMILES: O=C(Cc1cc[n+]([O-])cc1)N1CCC(C2c3ccc(Cl)cc3C=Cc3cc(Br)c[n+]([O-])c32)CC1 (centres unmarked) [Example 6, 4-(3-Bromo-8-Chloro-11H-Benzo[5.6]Cyclohepta[1,2-b]Pyridi-11-yl) -1-(4-Pyridinylacetyl)Piperidine N1-Oxide, N4-Oxide]
- IC50 [1]: 63 nM

SMILES: O=C(Cc1cc[n+]([O-])cc1)N1CCN([C@@H]2c3ccc(Cl)cc3CCc3cc(Br)c[n+]([O-])c32)CC1 [Example 7]
- IC50 [2]: 183 nM
- IC50 [3]: 85 nM
- IC50 [4]: 440 pM
- IC50 [1]: 6.3 nM

SMILES: O=C(Cc1cc[n+]([O-])cc1)N1CCN([C@H]2c3ccc(Cl)cc3CCc3cc(Br)c[n+]([O-])c32)CC1 [Example 8]
- FPT percent inhibition ([1]; @ 170 (concentration unit not given)): 39% @ 170
